Results as given in patent US20240307350A1, “5-METHOXY-N,N-DIMETHYLTRYPTAMINE (5-MEO-DMT) FOR TREATING DEPRESSION” (GH RESEARCH IRELAND LIMITED, priority 2019, published 2024).

System: patients with treatment-resistant major depressive disorder
Experiment: Clinical trial in treatment-resistant major depressive disorder: symptom scales (MADRS, PGI-S, PGI-I, C-SSRS, BPRS)
Format: in vivo, human
Details: for PGI-I: 1, Very much improved, 2, Much improved, to 7, Very much worse; for MADRS suicidal thoughts item: ranges from 0 to 6; for BPRS Unusual thought content / BPRS Somatic concern / BPRS Tension / BPRS Guilt feelings / BPRS Depressive Mood / BPRS Anxiety: scale of 1-7; for PGI-S: 1, Normal, not at all ill to 7, Extremely ill; for MADRS: score 0 to 60; for BPRS (total): 18 symptoms each rated 1-7; for C-SSRS Suicidal Ideation: whether any of the suicidal ideation items were present
Procedure: A clinical trial was performed in which 5-MeO-DMT free base (purity not less than 99%) was administered to patients with treatment-resistant major depressive disorder (TRD). The objectives of the study were to assess the safety and tolerability, the dose-related psychedelic effects and the effects on various measures of depression of single-day dosing of 5-MeO-DMT. The trial was reviewed and approved by the relevant national competent authority and local medical ethics committee. Patients recruited into the trial had to meet the Diagnostic and Statistical Manual of Mental Disorders-Fifth Edition (DSM-5) diagnostic criteria for single-episode or recurrent major depressive disorder and had to be treatment-resistant, both aspects as evaluated by a psychiatrist or registered psychologist. Patients who were using any psychoactive medication or substance (such as anti-depressive medication) had to discontinue such medication or substance and had to observe a wash-out period before the 5-MeO-DMT administration. On the administration day, a single dose of 12 mg 5-MeO-DMT was administered to the patients via a single inhalation as described in Example 1A. Patients were closely monitored for 3.5 hours after administration, with additional follow-up visits 1 day and 7 days after dosing. Various safety related measures (e.g., adverse event reporting, safety laboratory analyses, vital signs, electrocardiogram (ECG), Clinician Administered Dissociative States Scale (CADSS), Psychomotor Vigilance Test (PVT), Digit Symbol Substitution Test (DSST)), measures of the intensity of the psychedelic effects (e.g., Peak Psychedelic Experience Questionnaire (PPEQ), Altered States of Consciousness (ASC) Questionnaire, Mystical Experience Questionnaire (MEQ30), subjective description of the psychedelic experience), measures of depression severity (Montgomery-Åsberg Depression Rating Scale (MADRS), Patient's Global Impression of Severity scale (PGI-S), Patient's Global Impression of Improvement scale (PGI-I)), and additional psychological measures (e.g., Columbia-Suicide Severity Rating Scale (C-SSRS), Brief Psychiatric Rating Scale (BPRS)) were recorded at different time points. Psychological support via a psychologist and/or psychiatrist was available to the patients throughout the study, but no specific psychotherapy was applied, and no additional psychoactive medication was provided.
Two patients with major depressive disorder diagnosed by a psychiatrist according to DSM-5 diagnostic criteria were recruited into the study (Example 2, Table 1). The patients were considered treatment-resistant because they had not shown adequate improvement to at least two adequate courses of pharmacological therapy in the current episode of depression.

[1] = Patient 1, 2 hours after 12 mg inhaled
[2] = Patient 1, 2 hours after 12 mg inhaled, baseline 1
[3] = Patient 1, 2 hours after 12 mg inhaled, baseline 5
[4] = Patient 1, 1 day after 12 mg inhaled
[5] = Patient 1, 1 day after 12 mg inhaled, baseline 1
[6] = Patient 1, 1 day after 12 mg inhaled, baseline 5
[7] = Patient 1, 7 days after 12 mg inhaled
[8] = Patient 1, 7 days after 12 mg inhaled, baseline 1
[9] = Patient 1, 7 days after 12 mg inhaled, baseline 5
[10] = Patient 2, 2 hours after 12 mg inhaled
[11] = Patient 2, 2 hours after 12 mg inhaled, baseline 5
[12] = Patient 2, 1 day after 12 mg inhaled
[13] = Patient 2, 1 day after 12 mg inhaled, baseline 5
[14] = Patient 2, 7 days after 12 mg inhaled
[15] = Patient 2, 7 days after 12 mg inhaled, baseline 5
[16] = both patients, all assessment time points after 12 mg inhaled
[17] = single dose of 12 mg via inhalation

For `COc1ccc2[nH]cc(CCN(C)C)c2c1` [5-MeO-DMT, 5-methoxy-N,N-dimethyltryptamine], the “% MADRS change vs. baseline” value [1] was −68%, the PGI-I [1] was 1 and the “MADRS suicidal thoughts item” value [2] was 0. For the same compound, the “BPRS Unusual thought content” value [2] was 1, the “BPRS Somatic concern” value (Patient 1, 2 hours after 12 mg inhaled, baseline 3) was 2 and the “BPRS Tension” value (Patient 1, 2 hours after 12 mg inhaled, baseline 4) was 3. For the same compound, the PGI-S [3] was 1, the “BPRS Guilt feelings” value [3] was 1 and the “BPRS Depressive Mood” value (Patient 1, 2 hours after 12 mg inhaled, baseline 6) was 2. For the same compound, the “BPRS Anxiety” value (Patient 1, 2 hours after 12 mg inhaled, baseline 7) was 2, the MADRS (Patient 1, 2 hours after 12 mg inhaled, baseline 31) was 10 and the “BPRS (total)” value (Patient 1, 2 hours after 12 mg inhaled, baseline 42) was 27. The “C-SSRS Suicidal Ideation” value (Patient 1, 2 hours after 12 mg inhaled, baseline Yes) was “No”, the “% MADRS change vs. baseline” value [4] was −74% and the PGI-I [4] was 1. The “MADRS suicidal thoughts item” value [5] was 0, the “BPRS Unusual thought content” value [5] was 1 and the “BPRS Somatic concern” value (Patient 1, 1 day after 12 mg inhaled, baseline 3) was 1. The “BPRS Tension” value (Patient 1, 1 day after 12 mg inhaled, baseline 4) was 1, the PGI-S [6] was 1 and the “BPRS Guilt feelings” value [6] was 1. The “BPRS Depressive Mood” value (Patient 1, 1 day after 12 mg inhaled, baseline 6) was 1, the “BPRS Anxiety” value (Patient 1, 1 day after 12 mg inhaled, baseline 7) was 1 and the MADRS (Patient 1, 1 day after 12 mg inhaled, baseline 31) was 8. The “BPRS (total)” value (Patient 1, 1 day after 12 mg inhaled, baseline 42) was 18, the “C-SSRS Suicidal Ideation” value (Patient 1, 1 day after 12 mg inhaled, baseline Yes) was “No” and the “% MADRS change vs. baseline” value [7] was −90%. The PGI-I [7] was 1, the “MADRS suicidal thoughts item” value [8] was 0 and the “BPRS Unusual thought content” value [8] was 1. The “BPRS Somatic concern” value (Patient 1, 7 days after 12 mg inhaled, baseline 3) was 1, the “BPRS Tension” value (Patient 1, 7 days after 12 mg inhaled, baseline 4) was 1 and the PGI-S [9] was 1. For the same compound, the “BPRS Guilt feelings” value [9] was 1, the “BPRS Depressive Mood” value (Patient 1, 7 days after 12 mg inhaled, baseline 6) was 1 and the “BPRS Anxiety” value (Patient 1, 7 days after 12 mg inhaled, baseline 7) was 1. The MADRS (Patient 1, 7 days after 12 mg inhaled, baseline 31) was 3, the “BPRS (total)” value (Patient 1, 7 days after 12 mg inhaled, baseline 42) was 18 and the “C-SSRS Suicidal Ideation” value (Patient 1, 7 days after 12 mg inhaled, baseline Yes) was “No”. The “% MADRS change vs. baseline” value [10] was −73%, the PGI-I [10] was 2 and the “MADRS suicidal thoughts item” value (Patient 2, 2 hours after 12 mg inhaled, baseline 1) was 0. For the same compound, the “BPRS Tension” value (Patient 2, 2 hours after 12 mg inhaled, baseline 3) was 1, the “BPRS Somatic concern” value (Patient 2, 2 hours after 12 mg inhaled, baseline 4) was 1 and the PGI-S [11] was 1. The “BPRS Anxiety” value [11] was 2, the “BPRS Depressive Mood” value [11] was 3 and the “BPRS Guilt feelings” value [11] was 1. For the same compound, the “BPRS Unusual thought content” value (Patient 2, 2 hours after 12 mg inhaled, baseline 6) was 1, the MADRS (Patient 2, 2 hours after 12 mg inhaled, baseline 33) was 9 and the “BPRS (total)” value (Patient 2, 2 hours after 12 mg inhaled, baseline 45) was 26. For the same compound, the “C-SSRS Suicidal Ideation” value (Patient 2, 2 hours after 12 mg inhaled, baseline No) was “No”, the “% MADRS change vs. baseline” value [12] was −85% and the PGI-I [12] was 2. For the same compound, the “MADRS suicidal thoughts item” value (Patient 2, 1 day after 12 mg inhaled, baseline 1) was 1, the “BPRS Tension” value (Patient 2, 1 day after 12 mg inhaled, baseline 3) was 1 and the “BPRS Somatic concern” value (Patient 2, 1 day after 12 mg inhaled, baseline 4) was 1. The PGI-S [13] was 1, the “BPRS Anxiety” value [13] was 1 and the “BPRS Depressive Mood” value [13] was 1. The “BPRS Guilt feelings” value [13] was 1, the “BPRS Unusual thought content” value (Patient 2, 1 day after 12 mg inhaled, baseline 6) was 1 and the MADRS (Patient 2, 1 day after 12 mg inhaled, baseline 33) was 5. For the same compound, the “BPRS (total)” value (Patient 2, 1 day after 12 mg inhaled, baseline 45) was 19, the “C-SSRS Suicidal Ideation” value (Patient 2, 1 day after 12 mg inhaled, baseline No) was “No” and the “% MADRS change vs. baseline” value [14] was −85%. For the same compound, the PGI-I [14] was 2, the “MADRS suicidal thoughts item” value (Patient 2, 7 days after 12 mg inhaled, baseline 1) was 0 and the “BPRS Tension” value (Patient 2, 7 days after 12 mg inhaled, baseline 3) was 1. The “BPRS Somatic concern” value (Patient 2, 7 days after 12 mg inhaled, baseline 4) was 1, the PGI-S [15] was 1 and the “BPRS Anxiety” value [15] was 1. For the same compound, the “BPRS Depressive Mood” value [15] was 1, the “BPRS Guilt feelings” value [15] was 1 and the “BPRS Unusual thought content” value (Patient 2, 7 days after 12 mg inhaled, baseline 6) was 1. For the same compound, the MADRS (Patient 2, 7 days after 12 mg inhaled, baseline 33) was 5, the “BPRS (total)” value (Patient 2, 7 days after 12 mg inhaled, baseline 45) was 18 and the “C-SSRS Suicidal Ideation” value (Patient 2, 7 days after 12 mg inhaled, baseline No) was “No”. For the same compound, the “standard criteria for MADRS remission (MADRS total score equal or less than 10)” value [16] was “fulfilled”, the “standard criteria for MADRS response (at least 50% improvement from baseline)” value [16] was “fulfilled” and the “time to clinical remission after a single 5-MeO-DMT administration” value [17] was ≤ 2 h. The “time to clinical response after 5-MeO-DMT administration” value [17] was ≤ 2 h.
